Source: PMC11682119 (Scientific Reports, 2024)

Target: T1, hALDH2 (Homo sapiens, UniProt P05091)
T1 sequence (P05091 18-517): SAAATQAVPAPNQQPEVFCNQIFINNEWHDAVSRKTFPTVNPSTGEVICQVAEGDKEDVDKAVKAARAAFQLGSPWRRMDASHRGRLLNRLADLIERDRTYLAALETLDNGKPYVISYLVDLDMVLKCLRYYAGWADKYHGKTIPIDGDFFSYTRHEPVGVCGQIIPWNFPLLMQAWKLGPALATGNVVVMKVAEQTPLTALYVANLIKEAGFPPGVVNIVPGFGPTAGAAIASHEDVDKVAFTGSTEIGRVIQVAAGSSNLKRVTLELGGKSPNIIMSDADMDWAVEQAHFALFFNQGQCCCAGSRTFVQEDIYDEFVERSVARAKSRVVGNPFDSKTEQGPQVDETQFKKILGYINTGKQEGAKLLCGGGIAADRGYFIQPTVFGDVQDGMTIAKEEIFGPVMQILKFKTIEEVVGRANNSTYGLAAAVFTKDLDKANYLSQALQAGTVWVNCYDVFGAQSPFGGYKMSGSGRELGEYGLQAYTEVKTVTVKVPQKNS
Format: biochemical

How did the IC50 turn out when `CN(C)C(=S)SSC(=S)N(C)C` [thiram] was run?
The IC50 was 1600 nM.
